{"source": "patent US7835013B2", "about": "“Interferometric detection system and method” (Vanderbilt University, priority 2007, dated 2010)", "key": {"Calmodulin": {"target": "Calmodulin (Homo sapiens, UniProt P0DP23)", "details": "read-out: published Kd Calmodulin-calcium ion; cited from earlier work"}, "Calmodulin (CaM)": {"target": "T1, Calmodulin (CaM) (Homo sapiens, UniProt P0DP23)", "T1 construct": "purchased Sigma, St. Louis, Mo", "test": "BSI stop-flow label-free homogeneous binding to Calmodulin", "details": "for Kd: 5 μM CaM, 12.5-100 μM Ca^2+, pH 7.5, 25° C."}}, "note": "Like-named read-outs stand apart in the source and are kept apart here."}
{"compound": "[Ca+2]", "note": "[Ca^2+]", "values": [{"measurement": "Kd", "setting": "Calmodulin", "result": "1 to 10", "unit": "µM"}, {"measurement": "control: change in signal above that observed in the absence of excess EGTA", "setting": "Calmodulin (CaM); 5 μM CaM and 100 μM Ca^2+, both with excess EGTA (400 μM)", "result": "< 3", "unit": "%"}, {"measurement": "Kd", "setting": "Calmodulin (CaM); read-out: Kd CaM-Ca^2+ from kinetic analysis (single exponential, least squares)", "result": 3.36, "unit": "µM"}, {"measurement": "Kd", "setting": "Calmodulin (CaM); read-out: Kd CaM-Ca^2+ from steady-state values, Prism software", "result": 17.8, "unit": "µM"}]}
